From US20240199587A1, “HETEROCYCLIC COMPOUNDS” (Hoffmann-La Roche Inc., priority 2021, published 2024)

Target: T1, MAGL (Homo sapiens, UniProt Q99685)
T1 sequence (Q99685 1-303): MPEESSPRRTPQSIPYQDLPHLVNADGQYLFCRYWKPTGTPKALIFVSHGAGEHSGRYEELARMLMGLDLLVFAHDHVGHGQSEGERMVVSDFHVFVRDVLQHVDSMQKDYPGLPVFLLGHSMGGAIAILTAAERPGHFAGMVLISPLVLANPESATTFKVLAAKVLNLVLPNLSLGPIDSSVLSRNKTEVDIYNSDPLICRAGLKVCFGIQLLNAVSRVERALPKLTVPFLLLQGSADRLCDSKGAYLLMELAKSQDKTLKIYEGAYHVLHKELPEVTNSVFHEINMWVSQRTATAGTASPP
Assay: 2-AG assay (MAGL inhibitory activity, hydrolysis of 2-arachidonoylglycerol to arachidonic acid followed by mass spectrometry)
Format: biochemical
Conditions: 8 μM 2-arachidonoylglycerol, 15 min pre-incubation, 30 min incubation at RT, RapidFire MS readout
Method in brief: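 Human MAGL ([…] final) pre-incubated 15 min at RT with compound in 50 mM TRIS, 1 mM EDTA, 0.01% Tween-20, 2.5% DMSO; 8 μM 2-AG then added for 30 min at RT. Acetonitrile quench with d8-arachidonic acid; arachidonic acid measured by RapidFire SPE–MS/MS, activity from arachidonic acid/d8 ratio.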

IC50 [nM]	SMILES
2.42	O=C(N1CC2(CCN(Cc3ccc(C(F)(F)F)cn3)CC2)C1)N1CC2(CC(n3cnc(C4CC4)n3)C2)C1 [Example 463, [6-(3-cyclopropyl-1,2,4-triazol-1-yl)-2-azaspiro[3.3]heptan-2-yl]-[7-[[5-(trifluoromethyl)-2-pyridyl]methyl]-2,7-diazaspiro[3.5]nonan-2-yl]methanone]
5.05	O=C(N1CC2(CCN(Cc3ccc(C(F)(F)F)nc3)CC2)C1)N1CC2(CC(n3cnc(C4CC4)n3)C2)C1 [Example 464, [6-(3-cyclopropyl-1,2,4-triazol-1-yl)-2-azaspiro[3.3]heptan-2-yl]-[7-[[6-(trifluoromethyl)-3-pyridyl]methyl]-2,7-diazaspiro[3.5]nonan-2-yl]methanone]
1.17	O=C(N1CC(c2ccc(-c3nnc(C4(C(F)(F)F)CC4)[nH]3)cc2)C1)N1CC2(CC(n3cnc(C4CC4)n3)C2)C1 [Example 466, [6-(3-cyclopropyl-1,2,4-triazol-1-yl)-2-azaspiro[3.3]heptan-2-yl]-[3-[4-[5-[1-(trifluoromethyl)cyclopropyl]-4H-1,2,4-triazol-3-yl]phenyl]azetidin-1-yl]methanone]
2.36	O=C(N1CC(c2ccc(-c3n[nH]c(C4CC4)n3)cc2)C1)N1CC2(CC(n3cnc(C4CC4)n3)C2)C1 [Example 467, [6-(3-cyclopropyl-1,2,4-triazol-1-yl)-2-azaspiro[3.3]heptan-2-yl]-[3-[4-(5-cyclopropyl-1H-1,2,4-triazol-3-yl)phenyl]azetidin-1-yl]methanone]
0.48	O=C(N1CC2(CC(n3cnc(C4CC4)n3)C2)C1)N1CC2(CN(Cc3ccc(S(=O)(=O)C(F)(F)F)cc3)C2)C1 [Example 469, [6-(3-cyclopropyl-1,2,4-triazol-1-yl)-2-azaspiro[3.3]heptan-2-yl]-[6-[[4-(trifluoromethylsulfonyl)phenyl]methyl]-2,6-diazaspiro[3.3]heptan-2-yl]methanone]
0.42	O=C(N1CC(c2cnc(NCC3(C(F)(F)F)CC3)cn2)C1)N1CC2(CC(n3cnc(C4CC4)n3)C2)C1 [Example 470, [6-(3-cyclopropyl-1,2,4-triazol-1-yl)-2-azaspiro[3.3]heptan-2-yl]-[3-[5-[[1-(trifluoromethyl)cyclopropyl]methylamino]pyrazin-2-yl]azetidin-1-yl]methanone]
0.69	O=C(N1CC(c2ccc(-c3n[nH]c(C4CCC4)n3)cc2)C1)N1CC2(CC(n3cnc(C4CC4)n3)C2)C1 [Example 471, [3-[4-(5-cyclobutyl-1H-1,2,4-triazol-3-yl)phenyl]azetidin-1-yl]-[6-(3-cyclopropyl-1,2,4-triazol-1-yl)-2-azaspiro[3.3]heptan-2-yl]methanone]
45.3	O=C(N1CC2(CC(n3cnc(C4CC4)n3)C2)C1)N1CC2(CN(Cc3ccc(C(F)(F)F)nn3)C2)C1 [Example 472, [6-(3-cyclopropyl-1,2,4-triazol-1-yl)-2-azaspiro[3.3]heptan-2-yl]-[6-[[6-(trifluoromethyl)pyridazin-3-yl]methyl]-2,6-diazaspiro[3.3]heptan-2-yl]methanone]
0.56	O=C(N1CC(c2ccc(N3CC[C@H](C(F)(F)F)C3)nc2)C1)N1CC2(CC(n3cnc(C4CC4)n3)C2)C1 [Example 476, [6-(3-cyclopropyl-1,2,4-triazol-1-yl)-2-azaspiro[3.3]heptan-2-yl]-[3-[6-[(3S)-3-(trifluoromethyl)pyrrolidin-1-yl]-3-pyridyl]azetidin-1-yl]methanone]
0.97	O=C(N1CC(c2ccc(NC3(C(F)(F)F)CC3)nc2)C1)N1CC2(CC(n3cnc(C4CC4)n3)C2)C1 [Example 477, [6-(3-cyclopropyl-1,2,4-triazol-1-yl)-2-azaspiro[3.3]heptan-2-yl]-[3-[6-[[1-(trifluoromethyl)cyclopropyl]amino]-3-pyridyl]azetidin-1-yl]methanone]
0.74	O=C(N1CC(c2ccc(NCC3(C(F)(F)F)CC3)cn2)C1)N1CC2(CC(n3cnc(C4CC4)n3)C2)C1 [Example 478, [6-(3-cyclopropyl-1,2,4-triazol-1-yl)-2-azaspiro[3.3]heptan-2-yl]-[3-[5-[[1-(trifluoromethyl)cyclopropyl]methylamino]-2-pyridyl]azetidin-1-yl]methanone]
7.5	O=C(N1CC(c2cnc(N3CC(C(F)(F)F)C3)nc2)C1)N1CC2(CC(n3cnc(C4CC4)n3)C2)C1 [Example 479, [6-(3-cyclopropyl-1,2,4-triazol-1-yl)-2-azaspiro[3.3]heptan-2-yl]-[3-[2-[3-(trifluoromethyl)azetidin-1-yl]pyrimidin-5-yl]azetidin-1-yl]methanone]
4.07	O=C(N1CC(c2cnc(N3CC[C@H](C(F)(F)F)C3)nc2)C1)N1CC2(CC(n3cnc(C4CC4)n3)C2)C1 [Example 481, [6-(3-cyclopropyl-1,2,4-triazol-1-yl)-2-azaspiro[3.3]heptan-2-yl]-[3-[2-[(3S)-3-(trifluoromethyl)pyrrolidin-1-yl]pyrimidin-5-yl]azetidin-1-yl]methanone]
1.26	O=C(N1CC(c2cnc(N3CC[C@@H](C(F)(F)F)C3)nc2)C1)N1CC2(CC(n3cnc(C4CC4)n3)C2)C1 [Example 482, [6-(3-cyclopropyl-1,2,4-triazol-1-yl)-2-azaspiro[3.3]heptan-2-yl]-[3-[2-[(3R)-3-(trifluoromethyl)pyrrolidin-1-yl]pyrimidin-5-yl]azetidin-1-yl]methanone]

Second part, the molecule before the results:

SMILES	IC50 [nM]
CS(=O)(=O)c1cc(F)cc(CC2CC3(C2)CN(C(=O)N2CC4(CC(n5cnc(C(F)(F)F)n5)C4)C2)C3)c1 [Example 460, [6-[(3-fluoro-5-methylsulfonyl-phenyl)methyl]-2-azaspiro[3.3]heptan-2-yl]-[6-[3-(trifluoromethyl)-1,2,4-triazol-1-yl]-2-azaspiro[3.3]heptan-2-yl]methanone]	0.93
CS(=N)(=O)c1cccc(CC2CC3(C2)CN(C(=O)N2CC4(CC(n5cnc(C6CC6)n5)C4)C2)C3)c1 (stereo not shown) [Example 461, [6-(3-cyclopropyl-1,2,4-triazol-1-yl)-2-azaspiro[3.3]heptan-2-yl]-[6-[[3-(methylsulfonimidoyl)phenyl]methyl]-2-azaspiro[3.3]heptan-2-yl]methanone]	1.79
CS(=N)(=O)c1ccc(CC2CC3(C2)CN(C(=O)N2CC4(CC(n5cnc(C6CC6)n5)C4)C2)C3)cc1 (stereo not shown) [Example 462, [6-(3-cyclopropyl-1,2,4-triazol-1-yl)-2-azaspiro[3.3]heptan-2-yl]-[6-[[4-(methylsulfonimidoyl)phenyl]methyl]-2-azaspiro[3.3]heptan-2-yl]methanone]	2.94
O=C(N1CC2(CC(CNC3(C(F)(F)F)COC3)C2)C1)N1CC2(CC(n3cnc(C4CC4)n3)C2)C1 [Example 465, [6-(3-cyclopropyl-1,2,4-triazol-1-yl)-2-azaspiro[3.3]heptan-2-yl]-[6-[[[3-(trifluoromethyl)oxetan-3-yl]amino]methyl]-2-azaspiro[3.3]heptan-2-yl]methanone]	3.17
CS(=O)(=O)c1cc(F)cc(CC2CC3(C2)CN(C(=O)N2CC4(CC(n5cnc(C6CC6)n5)C4)C2)C3)c1 [Example 468, [6-(3-cyclopropyl-1,2,4-triazol-1-yl)-2-azaspiro[3.3]heptan-2-yl]-[6-[(3-fluoro-5-methylsulfonyl-phenyl)methyl]-2-azaspiro[3.3]heptan-2-yl]methanone]	0.15
O=C(N1CC2(CC(n3cnc(C4CC4)n3)C2)C1)N1CC2(CN(Cc3cnc(C(F)(F)F)cn3)C2)C1 [Example 473, [6-(3-cyclopropyl-1,2,4-triazol-1-yl)-2-azaspiro[3.3]heptan-2-yl]-[6-[[5-(trifluoromethyl)pyrazin-2-yl]methyl]-2,6-diazaspiro[3.3]heptan-2-yl]methanone]	11.4
O=C(N1CC2(CC(n3cnc(C4CC4)n3)C2)C1)N1CC2(C1)CN(S(=O)(=O)C13CC(C(F)(F)F)(C1)C3)C2 [Example 474, [6-(3-cyclopropyl-1,2,4-triazol-1-yl)-2-azaspiro[3.3]heptan-2-yl]-[2-[[3-(trifluoromethyl)-1-bicyclo[1.1.1]pentanyl]sulfonyl]-2,6-diazaspiro[3.3]heptan-6-yl]methanone]	24.5
CS(=O)(=O)c1cc(F)ccc1CC1CC2(C1)CN(C(=O)N1CC3(CC(n4cnc(C5CC5)n4)C3)C1)C2 [Example 475, [6-(3-cyclopropyl-1,2,4-triazol-1-yl)-2-azaspiro[3.3]heptan-2-yl]-[6-[(4-fluoro-2-methylsulfonyl-phenyl)methyl]-2-azaspiro[3.3]heptan-2-yl]methanone]	0.44
CS(=O)(=O)c1ccc(CC2CC3(C2)CN(C(=O)N2CC4(CC(n5cnc(C6CC6)n5)C4)C2)C3)c(F)c1 [Example 483, [6-(3-cyclopropyl-1,2,4-triazol-1-yl)-2-azaspiro[3.3]heptan-2-yl]-[6-[(2-fluoro-4-methylsulfonyl-phenyl)methyl]-2-azaspiro[3.3]heptan-2-yl]methanone]	0.16
O=C(N1CC2(CCN(S(=O)(=O)C34CC(C(F)(F)F)(C3)C4)CC2)C1)N1CC2(CC(n3cnc(C4CC4)n3)C2)C1 [Example 484, [6-(3-cyclopropyl-1,2,4-triazol-1-yl)-2-azaspiro[3.3]heptan-2-yl]-[7-[[3-(trifluoromethyl)-1-bicyclo[1.1.1]pentanyl]sulfonyl]-2,7-diazaspiro[3.5]nonan-2-yl]methanone]	19.5
CS(=O)(=O)c1cccc(CN2CCC3(CC2)CN(C(=O)N2CC4(CC(n5cnc(C6CC6)n5)C4)C2)C3)c1 [Example 485, [6-(3-cyclopropyl-1,2,4-triazol-1-yl)-2-azaspiro[3.3]heptan-2-yl]-[7-[(3-methylsulfonylphenyl)methyl]-2,7-diazaspiro[3.5]nonan-2-yl]methanone]	26.7
